Reference: ChEMBL document CHEMBL3046814, “Induction effects of host plants on insecticide susceptibility and detoxification enzymes of Bemisia tabaci (Hemiptera: Aleyrodidae)” (2011)
In brackets after ≈: the same amount, converted by molar mass.

Key:
Assay type in all cases: functional
Bemisia tabaci [1] = test: Insecticidal activity against Bemisia tabaci (sweet potato whitefly) infested cotton leaves assessed as mortality after 48 hr by leaf dip method; settings: foliar
Bemisia tabaci [2] = test: Insecticidal activity against Bemisia tabaci (sweet potato whitefly) infested tomato leaves assessed as mortality after 48 hr by leaf dip method; settings: foliar
Bemisia tabaci [3] = test: Insecticidal activity against Bemisia tabaci (sweet potato whitefly) infested poinsettia leaves assessed as mortality after 48 hr by leaf dip method; settings: foliar
Bemisia tabaci [4] = test: Insecticidal activity against Bemisia tabaci (sweet potato whitefly) infested cabbage leaves assessed as mortality after 48 hr by leaf dip method; settings: foliar
Bemisia tabaci [5] = test: Insecticidal activity against Bemisia tabaci (sweet potato whitefly) infested cucumber leaves assessed as mortality after 48 hr by leaf dip method; settings: foliar
Bemisia tabaci [6] = test: Resistance ratio of LC50 for Bemisia tabaci (sweet potato whitefly) infested poinsettia leaves to LC50 for Bemisia tabaci (sweet potato whitefly) infested tomato leaves
Bemisia tabaci [7] = test: Resistance ratio of LC50 for Bemisia tabaci (sweet potato whitefly) infested poinsettia leaves to LC50 for Bemisia tabaci (sweet potato whitefly) infested cucumber leaves
Bemisia tabaci [8] = test: Resistance ratio of LC50 for Bemisia tabaci (sweet potato whitefly) infested squash leaves to LC50 for Bemisia tabaci (sweet potato whitefly) infested cabbage leaves
Bemisia tabaci [9] = test: Resistance ratio of LC50 for Bemisia tabaci (sweet potato whitefly) infested squash leaves to LC50 for Bemisia tabaci (sweet potato whitefly) infested cotton leaves
Bemisia tabaci [10] = test: Resistance ratio of LC50 for Bemisia tabaci (sweet potato whitefly) infested poinsettia leaves to LC50 for Bemisia tabaci (sweet potato whitefly) infested cabbage leaves

Compound	LC50 (Bemisia tabaci [1])	LC50 (Bemisia tabaci [2])	LC50 (Bemisia tabaci [3])	LC50 (Bemisia tabaci [4])	LC50 (Bemisia tabaci [5])	RatioLC50 (Bemisia tabaci [6])	RatioLC50 (Bemisia tabaci [7])	RatioLC50 (Bemisia tabaci [8])	RatioLC50 (Bemisia tabaci [9])	RatioLC50 (Bemisia tabaci [10])
CC[C@H](C)[C@H]1O[C@]2(C=C[C@@H]1C)C[C@@H]1C[C@@H](C/C=C(\C)[C@@H](O[C@H]3C[C@H](OC)[C@@H](O[C@H]4C[C@H](OC)[C@@H](O)[C@H](C)O4)[C@H](C)O3)[C@@H](C)/C=C/C=C3\CO[C@@H]4[C@H](O)C(C)=C[C@@H](C(=O)O1)[C@]34O)O2.CO[C@H]1C[C@H](O[C@H]2[C@H](C)O[C@@H](O[C@@H]3/C(C)=C/C[C@@H]4C[C@@H](C[C@]5(C=C[C@H](C)[C@@H](C(C)C)O5)O4)OC(=O)[C@@H]4C=C(C)[C@@H](O)[C@H]5OC/C(=C\C=C\[C@@H]3C)[C@]54O)C[C@@H]2OC)O[C@@H](C)[C@@H]1O [ABAMECTIN]	0.7 mg/L	0.4 mg/L	0.74 mg/L	0.3 mg/L	0.5 mg/L	–	–	–	–	–
C/C(=N\C#N)N(C)Cc1ccc(Cl)nc1 [ACETAMIPRID]	66.4 mg/L (≈ 298 µM)	8.73 mg/L (≈ 39.2 µM)	129 mg/L (≈ 579 µM)	17.7 mg/L (≈ 79.5 µM)	12.4 mg/L (≈ 55.7 µM)	14.8	10.34	–	–	–
Cc1c(COC(=O)[C@@H]2[C@H](/C=C(\Cl)C(F)(F)F)C2(C)C)cccc1-c1ccccc1 [BIFENTHRIN]	228 mg/L (≈ 539 µM)	115 mg/L (≈ 272 µM)	278 mg/L (≈ 657 µM)	145 mg/L (≈ 343 µM)	462 mg/L (≈ 1090 µM)	4.02	–	7.5	7.5	3.19
CCCCN(CCCC)SN(C)C(=O)Oc1cccc2c1OC(C)(C)C2 [CARBOSULFAN]	2880 mg/L (≈ 7560 µM)	586 mg/L (≈ 1540 µM)	3730 mg/L (≈ 9790 µM)	696 mg/L (≈ 1830 µM)	3090 mg/L (≈ 8110 µM)	6.36	–	–	–	5.36
CCOP(=S)(OCC)Oc1nc(Cl)c(Cl)cc1Cl [CHLORPYRIFOS]	1410 mg/L (≈ 4030 µM)	581 mg/L (≈ 1660 µM)	2120 mg/L (≈ 6040 µM)	722 mg/L (≈ 2060 µM)	924 mg/L (≈ 2640 µM)	3.65	–	–	–	–
N#Cc1nn(-c2c(Cl)cc(C(F)(F)F)cc2Cl)c(N)c1[S+]([O-])C(F)(F)F (centres undefined) [FIPRONIL]	3.51 mg/L (≈ 8.03 µM)	5.96 mg/L (≈ 13.6 µM)	9.13 mg/L (≈ 20.9 µM)	3.82 mg/L (≈ 8.74 µM)	8.79 mg/L (≈ 20.1 µM)	–	–	–	–	–
